Measured values reported in patent publication US20060099173A1, “Topical skin care composition” (priority 2003, published 2006).
Like-named read-outs stand apart in the source and are kept apart here.

Tests used:
[1] = description of the substance; cited from earlier work
[2] = in vivo
clinical = conditions: human, in vivo

Structure (SMILES) | Stability of the drug substance (light, air, moisture) [1] | Percutaneous absorption of unchanged drug into the systemic circulation [2] | Post-dose plasma concentrations [2] | Number of subjects with quantifiable plasma concentrations ([2]; human, 8 weeks) | Subjects with quantifiable plasma concentrations ([2]; human, 8 weeks) | Cmax (clinical) | Cmax ([2]; human)
CC1(C)O[C@@H]2C[C@H]3[C@@H]4C[C@H](F)C5=CC(=O)C=C[C@]5(C)[C@@]4(F)[C@@H](O)C[C@]3(C)[C@]2(C(=O)CO)O1 [fluocinolone acetonide, (6,11,16)-6,9-difluoro-11,21-dihydroxy-16,17-[(1-methylethylidene)bis(oxy)]-pregna-1,-4-diene-3,20-dione] | stable in light | minimal | undetectably low |  |  |  | 
Oc1ccc(O)cc1 [hydroquinone, 1,4-benzenediol] | darken on exposure to air | minimal | undetectably low | 8 | 18% | 25.6 to 86.5 ng/mL | 
CC1=C(/C=C/C(C)=C/C=C/C(C)=C/C(=O)O)C(C)(C)CCC1 [tretinoin, (all-E)-3,7-dimethyl-9-(2,6,6-trimethyl-l-cyclohexen-1-yl)-2,4,6,8-nonatetraenoic acid] | highly reactive to light and moisture | minimal |  |  |  | 2.01 to 5.34 ng/mL | 2.0 to 4.99 ng/mL
